Experimental data taken from US11447535B2, “GLP-1 analogues” (Sun Pharmaceutical Industries Limited, priority 2018, dated 2022).
Marks after values point to notes of the source that are not given here.

Tests used:
[1] = tested on: SD rats; test: Oral glucose tolerance test (OGTT) in rats; single injection; 1 mg/kg; assay type: in vivo; parameters: Change in AUC (mg/dL*min): unit not given here; details: for Blood Glucose AUC (mg/dL*min) Mean / Change in AUC (mg/dL*min): 1 mg/Kg; for Blood Glucose AUC (mg/dL*min) Mean: Exp. 1; for Change in AUC (mg/dL*min): Exp. 1, vs control group
Method: (§1) Animals were divided into three groups—a normal control group, a test group and a third semaglutide group, with 4 animals in each group. The animals were fasted for 12 hours before initiation of OGTT. To the test group animals, the Compound 1 was injected subcutaneously at 1 mg/kg dose. To the semaglutide group, a dose of 1 mg/kg was injected subcutaneously. After 22 hrs, 166 hrs and 334 hrs of subcutaneous injection of test drug or semaglutide, blood glucose was measured with blood glucose meter (time 0 measurements). All the animals were then given 2 g/kg of glucose solution orally. Blood glucose was measured at 20, 40, 60, 90 and 120 minutes following glucose challenge. Body weight and food intake was recorded. Blood glucose data was analyzed using Two way ANOVA followed by Bonferroni posttests using PRISM (Graph Pad version 5.03). Data of Blood glucose AUC0-120 min, was analyzed using t test.
as §1, with “animals,” for “animals, the”, “1, Compound 13 and Compound 16 were” for “1 was”, “compound” for “drug”

[2] = Food intake and body weight recorded in the rat OGTT study; assay type: in vivo, rats; details: for Body Weight Change (%) Mean / Food Consumption (g) Mean: Exp. 1
Method: as §1
as §1, with “animals,” for “animals, the”, “1, Compound 13 and Compound 16 were” for “1 was”, “compound” for “drug”

[3] = tested on: db/db type 2 diabetic mice; test: Reduction of HbA1c in db/db type 2 diabetic mice after chronic treatment (27 day study); assay type: in vivo
Method: This study was done in diabetic mouse model. The animals were divided into three treatment groups—a diabetic control group, a test group and a semaglutide treatment group. Compound 1 of the present disclosure was injected subcutaneously at 0.3 mg/kg dose once a day for 3 days (qd*3) followed by 0.1 mg/kg dose every alternate day for 7 doses (q2d*7) followed by 0.1 mg/kg dose once every four days for two dose cycles (q4d*2). The same dosage regimen was administered in semaglutide treatment group. Measurements of blood glucose levels and body weight were done daily. % HbA1c was measured on Day 0, day 7, day 14 and day 27 by column chromatography. Cumulative food intake was calculated on day 27. % HbA1C data was analyzed by two way ANOVA followed by Bonferroni's posttests using PRISM (Graph Pad version 5.03).

[4] = tested on: db/db mice (diabetic mouse model); test: Separate db/db diabetic mouse study, q2d*15 up to day 28, recovery period day 29 to day 45; assay type: in vivo
Method: The study was performed in similar manner as above on diabetic mouse model. The animals were divided into three treatment groups—a diabetic control group, a test group and a semaglutide treatment group. The representative compounds of the present disclosure, Compound 1, Compound 13 and Compound 16, were injected subcutaneously at 3.04 or 6.078 nM dose (every alternate day up to day 28 (q2d*15). The same dosage regimen was administered in semaglutide treatment group. Measurements of blood glucose levels and body weight were done daily. % HbA1c, Insulin was measured on Day 0, day 14 and day 29. Cumulative food intake and body weight change was calculated on day 14 and 29. % HbA1c, Insulin data was analyzed by two way ANOVA followed by Bonferroni's posttests using PRISM (Graph Pad version 5.03). Whereas Blood Glucose AUC, Body weight change and Cumulative food intake data was analyzed by one way ANOVA followed by Bonferroni's posttests using PRISM (Graph Pad version 5.03). From day 29 to day 45, animals were kept on recovery period during which no drug treatment was given. Blood Glucose and Body weight was measured during this period. On day 45, Body weight Changes, % HbA1c, Insulin was measured.

[5] = rats, 1 mg/kg s.c. single injection, Day 2
[6] = rats, 1 mg/kg s.c. single injection, Day 4
[7] = recovery period, earlier dose 6.078 nM
[8] = recovery study, day 45, earlier dose 6.078 nM (6.0788 nM given for Compound 13)

## N-ε^26-[2-(2-[2-(2-[2-(2-[4-(17-Carboxyheptadecanoylamino)-4(S)carboxybutyrylamino]ethoxy) ethoxy]acetylamino)ethoxy]ethoxy)acetyl][(Aib^8, Arg^34, Leu^38 GLP-1(7-38) peptide (HXXXGTFTSDVSSYLXGQAAXEFXAWLVRGRGXX; C18 diacid-gGlu-OEG-OEG on Lys26; Aib8; (2)..(2) Xaa = Aib; (3)..(3) Xaa = absent.; (4)..(4) Xaa = Glu.; (16)..(16) Xaa = Glu.; (21)..(21) Lys is substituted; (24)..(24) Xaa is Ile.; (33)..(33) Xaa is Leu.; (34)..(34) Xaa is absent.) [Compound 1]
[1]; OGTT, 22 hr
  Blood Glucose AUC (mg/dL*min) Mean: 3173.0 mg·min/dL
  Change in AUC (mg/dL*min): −78.7
[1]; OGTT, 168 hr
  Blood Glucose AUC (mg/dL*min) Mean: 5941.0 mg·min/dL
  Change in AUC (mg/dL*min): −65.4
[1]; OGTT, 336 hr
  Blood Glucose AUC (mg/dL*min) Mean: 11920.0 mg·min/dL
  Change in AUC (mg/dL*min): −28.3
[1]; OGTT, 22 hours after single dosing, 1 mg/kg s.c. (FIG. 6A)
  blood glucose level vs normal control: statistically significant reduction in blood glucose level
[1]; OGTT, after 22 hrs, 1 mg/kg s.c. (FIG. 6A)
  glucose lowering effect vs semaglutide: superior to the glucose lowering effect observed with semaglutide
[1]; OGTT, after 46 hours of subcutaneous administration (FIG. 6B)
  glucose lowering effect vs semaglutide: superiority of glucose lowering effect
[1]; after 168 hrs of injection, 1 mg/kg
  reduction in blood glucose AUC: about 60%
[2]; 1 mg/Kg, 48 h
  Body Weight Change (%) Mean: −9.8%
  Food Consumption (g) Mean: 8.3 g
[2]; 1 mg/Kg, 154 h
  Body Weight Change (%) Mean: 5.2%
  Food Consumption (g) Mean: 69.6 g
[2]; 1 mg/Kg, 324 h
  Body Weight Change (%) Mean: 9.3%
  Food Consumption (g) Mean: 99.4 g
[2]; 1 mg/Kg, text on Table 8
  food consumed vs animals administered with semaglutide: consumed significantly less food
[2]; [5]
  Body Weight (Day 2) % Change vs Baseline: −9.33%
  Body Weight (g) (Day 2) Mean: 365.6 g
[2]; [6]
  Body Weight (Day 4) % Change vs Baseline: −7.5%
  Body Weight (g) (Day 4) Mean: 436.2* g
[2]; rats, 1 mg/kg s.c. single injection, day 0 to day 2
  Food Consumption (g) (day 0 to day 2) Mean: 2.63*** g
[2]; rats, 1 mg/kg s.c. single injection, day 0 to day 4
  Food Consumption (g) (day 0 to day 4) Mean: 43.25***^,## g
[3]; db/db mice, 0 to 27th day (FIG. 8)
  cumulative food intake vs diabetic control group: significant reduction in food intake
[3]; db/db mice, Day 0 (before treatment)
  % HbA1c Mean: 4.87%
[3]; db/db mice, Day 27, vs Diabetic Control
  % HbA1c % Change vs DC: −3.57%
[3]; db/db mice, Day 27, s.c. 0.3 mg/kg qd*3, 0.1 mg/kg q2d*7, 0.1 mg/kg q4d*2
  % HbA1c Mean: 3.73***^## %
[3]; db/db mice, chronic treatment (FIG. 7)
  blood glucose levels vs diabetic control group: statistically significant reduction in blood glucose levels
[3]; db/db mice, day 0 to day 27 (FIG. 9)
  % change in body weight: −16%
[3]; db/db mice, latter phase of the study (FIG. 7)
  blood glucose effect vs semaglutide treatment group: superior to semaglutide treatment group in latter phase of the study
[3]; db/db type 2 diabetic mice, 27 day study
  HbA1c level after chronic treatment: statistically significant reduction in HbA1c level
[4]; 6.078 nM, q2d*15
  Blood Glucose AUC (Day 0-29) % Change Vs Control: −45.75%
  Blood Glucose AUC (Day 0-29) (mg/dL*days) Mean: 9194.6*** mg/dL*days
  Body Weight Change Day 29, % Change vs Day 0 Mean: −0.3%
  Cumulative Food Intake (g) Day 0-29 Mean: 79.8 g
[4]; Day 0, 6.078 nM, q2d*15
  % HbA1C Mean: 7.8%
  Insulin (ng/mL) Mean: 18.0 ng/mL
[4]; Day 14, 6.078 nM, q2d*15
  % HbA1C Mean: 6.4 ** %
  Insulin (ng/mL) Mean: 58.1** ng/mL
[4]; Day 29, 6.078 nM, q2d*15
  % HbA1C Mean: 6.2 *** %
  Insulin (ng/mL) Mean: 54.7** ng/mL
[4]; about 3 nM and 6 nM dose
  HbA1c, blood glucose, food consumption and body weight vs control: significant reduction
[4]; [7]
  Blood Glucose AUC (Day 30-37) % Change vs Control: −22.39%
  Blood Glucose AUC (Day 30-37) (mg/dL*days) Mean: 2787.3* mg/dL*days
  Blood Glucose AUC (Day 38-45) % Change vs Control: −7.39%
  Blood Glucose AUC (Day 38-45) (mg/dL*days) Mean: 3335.7 mg·days/dL
[4]; [8]
  % HbA1C Mean: 7.6%
  Delta HbA1C vs. DC: −0.9
  Insulin (ng/mL) Mean: 30.9 ng/mL
[4]; recovery study, earlier dose 6.078 nM (6.0788 nM given for Compound 13)
  Body Weight % Change vs Day 45 Mean: 5.9%
